Measurements published in patent publication US20250129135A1, “Multi-Agonist and Use Thereof” (priority 2021, published 2025).
Starred links: 1 amine or outer side, 2 acyl side, 3 side chain; linkers in the order of their positions; H or OH if unused. Non-standard residues stand in square brackets, D forms with d. Residues, ends and D or L forms follow the SMILES beside them. Groups on a side chain read outwards from the residue. *: point of attachment. C20 diacid = O=C(O)CCCCCCCCCCCCCCCCCCC(=O)*; γGlu = O=C(O)[C@H](CCC(=O)[*:2])N[*:1]; αMeF = C[C@](N)(Cc1ccccc1)C(=O)O; αMeL = CC(C)C[C@](C)(N)C(=O)O; AEEA = NCCOCCOCC(=O)O; Ac3c = NC1(C(=O)O)CC1; Aib = CC(C)(N)C(=O)O

Columns and labels:
Human GLP-1R = Human GLP-1R (Homo sapiens, UniProt P43220); test: cAMP (HTRF) activity in HEK-293 cells stably overexpressing human GLP-1 receptor; type: cell-based; parameters: expressed in transfected cells; host or cells: HEK-293; conditions: for Human GLP-1R Rel. A (Relative Activity): EC50 of human GLP-1 (7-37) / EC50 of compound
Sequence of Human GLP-1R (P43220 24-463): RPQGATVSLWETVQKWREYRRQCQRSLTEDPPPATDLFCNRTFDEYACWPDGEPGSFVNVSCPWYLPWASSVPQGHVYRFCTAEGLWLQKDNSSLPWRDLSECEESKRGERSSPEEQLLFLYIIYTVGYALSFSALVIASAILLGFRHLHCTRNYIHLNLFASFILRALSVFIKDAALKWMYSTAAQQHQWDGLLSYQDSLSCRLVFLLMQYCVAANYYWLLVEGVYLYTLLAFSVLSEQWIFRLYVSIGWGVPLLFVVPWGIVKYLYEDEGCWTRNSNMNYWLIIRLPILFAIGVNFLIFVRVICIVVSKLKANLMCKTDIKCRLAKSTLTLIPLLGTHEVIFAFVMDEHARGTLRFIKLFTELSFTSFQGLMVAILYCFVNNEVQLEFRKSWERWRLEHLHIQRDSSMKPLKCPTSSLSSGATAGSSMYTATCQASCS
Method: (§1) By measuring the cAMP signal response levels of the aforementioned cells, the agonistic activity of individual compound towards the corresponding receptor was determined. The intracellular cAMP content was measured using reagent kit available from Cisbio Corp. based on HTRF (homogeneous time-resolved fluorescence) technology.
(§2) The cell fluid was transferred to 10 ml of HBSS for resuspension, and centrifuged at 1000 rpm for 5 minutes at room temperature.
(§3) 10 μL cell suspension was added to each well in the 384 well plate. […] Using the ECHO liquid transfer system, 100 nL of the prepared compound solution was added to the corresponding cell suspensions in the 384 well plate, rotated and shaken at 1000 rpm for 1 minute to mix evenly, and then incubated at room temperature for 60 minutes. 10 μL of detection reagent was added to each well after drug incubation was completed, and incubation was performed in the kit at room temperature for 60 minutes. […] GraphPad Prism 5 plotting software was used to create compound concentration response curves and EC50 (nM) values was calculated.

RIN-m5F cells = type: cell-based, rat; conditions: for Rel. A (Relative Activity) on RIN-m5F: relative to GLP-1(7-37)
Method: This experiment measured the cAMP level produced by the compound on RIN-mF cells.
Frozen […] cells were placed in a 37° C. constant temperature water bath for rapid thawing and recovery. The cell solution was transferred to 10 ml of HBSS for resuspension, and centrifuged at 1000 rpm for 5 minutes at room temperature.
(§4) 10 μL cell suspension was added to each well in the 384 well plate. […] Using the ECHO liquid transfer system, 100 nL of the prepared compound solution was added to the corresponding cell suspensions in the 384 well plate, rotated and shaken at 1000 rpm for 1 minute to mix evenly, and then incubated at room temperature for 60 minutes. 10 μL of detection reagent was added to each wells after drug incubation was completed, and incubation was performed for 60 minutes.

[1] = system: human primary liver cells; type: cell-based; conditions: for Rel. A (Relative Activity) on human primary liver cells: relative to GCG
Method: The cAMP levels produced by compounds on human primary liver cells were determined in this experiment. Human primary liver cells were purchased from Lonza (cell product number HUCPG).
Frozen human primary liver cells were placed in a 37° C. constant temperature water bath for rapid thawing and recovery. The cell solution was transferred to 10 ml of HBSS for resuspension, and centrifuged at 1000 rpm for 5 minutes at room temperature.
as §4, with “well” for “wells”

Human GIP R = biological target: T1, Human GIP R (Homo sapiens, UniProt P48546); test: cAMP (HTRF) activity in CHO cells stably overexpressing GIP receptor; type: cell-based; conditions: for Human GIP R Rel. A (Relative Activity): EC50 of human GIP / EC50 of compound; for EC50: stable transfected cell cAMP activity, at least 3 independent tests
T1 construct: expressed in transfected cells; host or cells: CHO
T1 sequence (P48546 22-466): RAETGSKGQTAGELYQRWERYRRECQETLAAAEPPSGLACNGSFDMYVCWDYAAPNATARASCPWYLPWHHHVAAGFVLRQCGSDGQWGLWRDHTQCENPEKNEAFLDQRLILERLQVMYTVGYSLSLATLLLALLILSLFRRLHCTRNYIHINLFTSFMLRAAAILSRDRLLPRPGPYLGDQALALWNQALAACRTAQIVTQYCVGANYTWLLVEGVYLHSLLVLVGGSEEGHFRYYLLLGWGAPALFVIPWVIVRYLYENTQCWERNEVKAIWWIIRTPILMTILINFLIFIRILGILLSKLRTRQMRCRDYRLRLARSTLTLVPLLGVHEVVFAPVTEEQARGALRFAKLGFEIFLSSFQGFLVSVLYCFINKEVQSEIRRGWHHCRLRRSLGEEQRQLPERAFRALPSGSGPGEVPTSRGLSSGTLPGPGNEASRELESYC
Method: as §1, §2, §3

Human GCG R = biological target: T2, Human GCG R (Homo sapiens, UniProt P47871); test: cAMP (HTRF) activity in HEK-293 cells stably overexpressing human GCG receptor; type: cell-based; conditions: EC50 of human GCG / EC50 of compound
T2 construct: expressed in transfected cells; host or cells: HEK-293
T2 sequence (P47871 26-477): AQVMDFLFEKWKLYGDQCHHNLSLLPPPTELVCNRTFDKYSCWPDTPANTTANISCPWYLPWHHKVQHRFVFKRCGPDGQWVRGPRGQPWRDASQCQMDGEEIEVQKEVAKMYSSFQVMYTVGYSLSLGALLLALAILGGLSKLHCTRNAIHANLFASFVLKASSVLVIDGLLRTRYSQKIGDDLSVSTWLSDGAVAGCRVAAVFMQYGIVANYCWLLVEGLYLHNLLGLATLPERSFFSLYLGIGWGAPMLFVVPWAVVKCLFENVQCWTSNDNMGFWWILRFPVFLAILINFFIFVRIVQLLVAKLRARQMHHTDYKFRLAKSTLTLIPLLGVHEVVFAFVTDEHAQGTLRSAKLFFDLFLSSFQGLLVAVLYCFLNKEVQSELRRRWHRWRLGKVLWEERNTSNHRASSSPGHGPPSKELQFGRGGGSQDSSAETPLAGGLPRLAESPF
Method: as §1, §2, §3

3T3-L1 adipocytes = conditions: for Rel. A (Relative Activity) on 3T3-L1 adipocyte: relative to GIP
Method: Mouse 3T3-L1 precursor adipocytes can be induced to differentiate into mature adipocytes. […] After the cells became full and contacted with each other, DMEM differentiation medium containing 20% FBS, 0.5 mM IBMX, 0.4 ug/mL dexamethasone, and 5 ug/mL insulin was used to induce differentiation of 3T3-L1 adipocyte. After 5 days of induction and cultivation, DMEM medium containing […], 4 ug/ml insulin, and 10 uM rosiglitazone was used to continue induction and cultivation for 3 days. Then, DMEM medium containing 10% FBS was used to continue cultivation for 2-3 days to induce mature 3T3-L1 adipocytes.
The cAMP level produced by the compound on 3T3-L1 adipocytes was determined in this experiment. The tested compound solution was diluted step by step according to a concentration gradient of 3 times, to obtain a total of 10 series of concentration solutions. The solutions were added to induced mature 3T3-L1 adipocytes and incubated at room temperature for 60 minutes. 10 μL detection reagent in the kit was added to each well after drug incubation, and incubated at room temperature for another 60 minutes. […] GraphPad Prism 5 plotting software was used to create compound concentration-effect curves and calculation was performed.

| Compound | Human GLP-1R Rel. A (Relative Activity) (Human GLP-1R) [%] | EC50 (RIN-m5F cells) [nM] | Rel. A (Relative Activity) on RIN-m5F (RIN-m5F cells) [%] | EC50 [1] [nM] | Rel. A (Relative Activity) on human primary liver cells [1] [%] | Human GIP R Rel. A (Relative Activity) (Human GIP R) [%] | EC50 (Human GIP R) [nM] | Human GCG R Rel. A (Relative Activity) (Human GCG R) [%] | EC50 (3T3-L1 adipocytes) [nM] | Rel. A (Relative Activity) on 3T3-L1 adipocyte (3T3-L1 adipocytes) [%] | EC50 (Human GLP-1R; stable transfected cell cAMP activity, at least 3 independent tests) [nM] |
| --- | --- | --- | --- | --- | --- | --- | --- | --- | --- | --- | --- |
| CC[C@H](C)[C@H](NC(=O)[C@H](Cc1ccccc1)NC(=O)[C@H](C)NC(=O)C(C)(C)NC(=O)[C@H](CCC(N)=O)NC(=O)[C@H](C)NC(=O)[C@H](CCCCNC(=O)COCCOCCNC(=O)COCCOCCNC(=O)CC[C@H](NC(=O)CCCCCCCCCCCCCCCCCCC(=O)O)C(=O)O)NC(=O)[C@H](CCCCN)NC(=O)[C@H](CC(=O)O)NC(=O)[C@H](CC(C)C)NC(=O)[C@](C)(CC(C)C)NC(=O)[C@@H](NC(=O)[C@H](CO)NC(=O)[C@H](Cc1ccc(O)cc1)NC(=O)[C@H](CC(=O)O)NC(=O)[C@H](CO)NC(=O)[C@@H](NC(=O)[C@](C)(Cc1ccccc1F)NC(=O)[C@@H](NC(=O)CNC(=O)[C@H](CCC(N)=O)NC(=O)C(C)(C)NC(=O)[C@@H](N)Cc1ccc(O)cc1)[C@@H](C)O)[C@@H](C)O)[C@@H](C)CC)C(=O)N[C@@H](CCC(=O)O)C(=O)N[C@@H](Cc1ccccc1)C(=O)N[C@@H](CC(C)C)C(=O)N[C@@H](CC(C)C)C(=O)N[C@@H](CCC(=O)O)C(=O)NCC(=O)N[C@@H](CCCNC(=N)N)C(=O)N1CCC[C@H]1C(=O)N[C@@H](CO)C(=O)N[C@@H](CO)C(=O)NC(C)(C)C(=O)N[C@@H](Cc1c[nH]cn1)C(=O)N1CCC[C@H]1C(=O)N1CCC[C@H]1C(=O)N1CCC[C@H]1C(=O)N[C@@H](CO)C(N)=O [Compound 25] | 141.94 | 0.202 | 510.89 | 0.649 | 599.54 | 1392.31 | 0.013 | 167.65 | 0.918 | 414.16 | – |
| CC[C@H](C)[C@H](NC(=O)[C@H](Cc1ccccc1)NC(=O)[C@H](C)NC(=O)C(C)(C)NC(=O)[C@H](CCC(N)=O)NC(=O)[C@H](C)NC(=O)[C@H](CCCCNC(=O)COCCOCCNC(=O)COCCOCCNC(=O)CC[C@H](NC(=O)CCCCCCCCCCCCCCCCCCC(=O)O)C(=O)O)NC(=O)[C@H](CCCCN)NC(=O)[C@H](CC(=O)O)NC(=O)[C@H](CC(C)C)NC(=O)[C@](C)(CC(C)C)NC(=O)[C@@H](NC(=O)[C@H](CO)NC(=O)[C@H](Cc1ccc(O)cc1)NC(=O)[C@H](CC(=O)O)NC(=O)[C@H](CO)NC(=O)[C@@H](NC(=O)[C@](C)(Cc1ccccc1)NC(=O)[C@@H](NC(=O)CNC(=O)[C@H](CCC(N)=O)NC(=O)C(C)(C)NC(=O)[C@@H](N)Cc1ccc(O)cc1)[C@@H](C)O)[C@@H](C)O)[C@@H](C)CC)C(=O)N[C@@H](CCC(=O)O)C(=O)N[C@@H](Cc1ccccc1)C(=O)N[C@@H](CC(C)C)C(=O)N[C@@H](CC(C)C)C(=O)N[C@@H](CCC(=O)O)C(=O)N[C@@H](CO)C(=O)NC(C)(C)C(=O)N1CCC[C@H]1C(=O)N[C@@H](CO)C(=O)N[C@@H](CO)C(=O)NCC(=O)N[C@@H](C)C(=O)N1CCC[C@H]1C(=O)N1CCC[C@H]1C(=O)NC1(C(=O)N[C@@H](CO)C(N)=O)CC1 [Compound 28] (H-Y[Aib]QGT[αMeF]TSDYSI[αMeL]LDKK([AEEA-AEEA-γGlu-C20 diacid])AQ[Aib]AFIEFLLES[Aib]PSSGAPP[Ac3c]S-NH2) | 183.33 | 0.784 | 131.63 | 5.21 | 74.74 | 1645.45 | 0.011 | 37.01 | 9.85 | 38.61 | – |
| CC[C@H](C)[C@H](NC(=O)[C@H](Cc1ccccc1)NC(=O)[C@H](C)NC(=O)C(C)(C)NC(=O)[C@H](CCC(N)=O)NC(=O)[C@H](C)NC(=O)[C@H](CCCCNC(=O)COCCOCCNC(=O)COCCOCCNC(=O)CC[C@H](NC(=O)CCCCCCCCCCCCCCCCCCC(=O)O)C(=O)O)NC(=O)[C@H](CCCCN)NC(=O)[C@H](CC(=O)O)NC(=O)[C@H](CC(C)C)NC(=O)[C@H](Cc1ccccc1)NC(=O)[C@@H](NC(=O)[C@H](CO)NC(=O)[C@H](Cc1ccc(O)cc1)NC(=O)[C@H](CC(=O)O)NC(=O)[C@H](CO)NC(=O)[C@@H](NC(=O)[C@](C)(Cc1ccccc1)NC(=O)[C@@H](NC(=O)CNC(=O)[C@H](CCC(N)=O)NC(=O)C(C)(C)NC(=O)[C@@H](N)Cc1ccc(O)cc1)[C@@H](C)O)[C@@H](C)O)[C@@H](C)CC)C(=O)N[C@@H](CCC(=O)O)C(=O)N[C@@H](Cc1ccc(O)cc1)C(=O)N[C@@H](CC(C)C)C(=O)N[C@@H](CC(C)C)C(=O)N[C@@H](CCC(=O)O)C(=O)N[C@@H](CO)C(=O)NC(C)(C)C(=O)N1CCC[C@H]1C(=O)N[C@@H](CO)C(=O)N[C@@H](CO)C(=O)NCC(=O)N[C@@H](C)C(=O)N1CCC[C@H]1C(=O)N1CCC[C@H]1C(=O)NC1(C(=O)N[C@@H](CO)C(N)=O)CC1 [Compound 29] (H-Y[Aib]QGT[αMeF]TSDYSIFLDKK([AEEA-AEEA-γGlu-C20 diacid])AQ[Aib]AFIEYLLES[Aib]PSSGAPP[Ac3c]S-NH2; N-terminus assumed) | 275.00 | 0.633 | 163.03 | 2.93 | 132.89 | 58.58 | – | 82.61 | 20.7 | 18.41 | 0.016 |
